This is an account of results in US11583507B2, “Direct AMPK activator compounds” (SOCIETE DES PRODUITS NESTLE S.A., priority 2018, dated 2023).

The structures appear in SMILES notation.

Assay [1] concerns primary hepatocytes. Kind of assay: Lipogenesis ([1-14C]-acetate incorporation into fatty acids) in primary hepatocytes. The assay is classed as cell-based, mouse. To be noted: 1 h at 37 C, varying concentrations. The protocol: Hepatocyte isolation: The liver was first perfused with 50 ml perfusion buffer (Krebs-Hepes buffer with […] EDTA), followed with 50 ml collagenase A buffer (Krebs-Hepes buffer with 5 mM CaCl2 and 0.5 mg/ml collagenase). […] Hepatocytes were left to attach (3-4 h) and cultured overnight in M199 supplemented with antibiotics and 100 nM dexamethasone. Cells were used for experiments the following morning. For primary hepatocyte isolation see Example 4. For lipogenesis measurements in primary hepatocytes, cells were seeded at 600 K cells per well in a 6-well plate overnight. Media was replaced with fresh M199 media alone for 2 hours prior to incubation with varying concentrations of Lusianthridin for 1 h at 37 C, in the presence of [1-^14C]-acetate. The incorporation of [^14C] into fatty acids was determined in the lower organic layer after separation from the aqueous phase. […] Lipogenesis is controlled by the AMPK substrate ACC, and phosphorylation and inhibition of ACC by AMPK, leads to a decrease in lipogenesis. Lipogenesis was measured in primary hepatocytes by determining the incorporation of ^14C-labelled acetate into fatty acids. Lipogenesis was monitored in the presence or absence of varying concentrations of Lusianthridin for 1 h at 37 C. […] This observation is consistent with its ability to activate AMPK in hepatocytes, which leads to the phosphorylation and inhibition of ACC.

For assay [2], the system named is AMPK β1 WT (phosphorylation of ACC). In words: pACC (HTRF and western blot) in AMPKβ1/β2 double knockout U2-OS Flp-In T-Rex cells stably expressing β1 WT. Type of assay: cell-based, human. The text has this: AMPKβ1/β2 double knockout U2-OS Flp-In™ T-Rex™ cell lines were generated by Horizon Discovery (Cambridge, UK). Cells were genotyped and analysed by western blotting to confirm that there was a complete knockout of AMPKβ1/β2. We took these AMPKβ1/β2 double knockout cells, and re-introduced the expression of human β1 wild-type (WT) or a β1 Serine 108 to alanine mutation (S108A). This was achieved using the Flp-In™ system (Invitrogen) present in this cell line and stable cells expressing β1 WT or a β1 S108A mutant were generated according to the manufacturers' protocols. Re-expression of the β1 subunit was confirmed by western blot analysis.
Cells stably expressing β1 WT or a β1 S108A mutant were treated with varying concentrations of Lusianthridin and subjected to the pACC HTRF (Cisbio) assay or western blot analysis to determine phosphorylation of the AMPK substrate, ACC, in cells lysates. Western blots were quantified using the LI-COR odyssey system and shown as the ratio of the antibody signal from pACC divided by total ACC.
In general terms: Time-resolved FRET reads energy transfer from a long-lived donor to a nearby acceptor.

In assay [3] the test system is AMPK substrate, ACC. In words: pACC HTRF assay in mouse primary hepatocytes. The assay is classed as cell-based. To be noted: 1 h incubation at 37 C, dose-dependent. The protocol:
Hepatocyte isolation: The liver was first perfused with 50 ml perfusion buffer (Krebs-Hepes buffer with […] EDTA), followed with 50 ml collagenase A buffer (Krebs-Hepes buffer with 5 mM CaCl2 and 0.5 mg/ml collagenase). […] Hepatocytes were left to attach (3-4 h) and cultured overnight in M199 supplemented with antibiotics and 100 nM dexamethasone. Cells were used for experiments the following morning. Primary hepatocytes were seeded at 15 K cells in a 96-well plate overnight. Cells were treated for 1 h with varying concentrations of Lusianthridin in media and then cells were lysed in 50 μl of Cisbio lysis buffer #1 supplemented with blocking solution as per the manufacturer's protocol (Cisbio). Cells were lysed for 30 mins at room temperature before 16 μl of lysate was incubated with 4 μl of the HTRF antibodies. Lysates were incubated overnight with the antibody before 665 nm/620 nm ratio was determined using a MolecularDevices i3 plate reader (with a HTRF cartridge add-on).

Assay [4] deals with T1, AMPK α2β1γ1 R298G (211 R298G) mutant (Homo sapiens, UniProt P54619+P54646+Q9Y478, R299G).
T1 construct: His; made in house; host or cells: bacteria
T1 sequence (P54646 whole entry): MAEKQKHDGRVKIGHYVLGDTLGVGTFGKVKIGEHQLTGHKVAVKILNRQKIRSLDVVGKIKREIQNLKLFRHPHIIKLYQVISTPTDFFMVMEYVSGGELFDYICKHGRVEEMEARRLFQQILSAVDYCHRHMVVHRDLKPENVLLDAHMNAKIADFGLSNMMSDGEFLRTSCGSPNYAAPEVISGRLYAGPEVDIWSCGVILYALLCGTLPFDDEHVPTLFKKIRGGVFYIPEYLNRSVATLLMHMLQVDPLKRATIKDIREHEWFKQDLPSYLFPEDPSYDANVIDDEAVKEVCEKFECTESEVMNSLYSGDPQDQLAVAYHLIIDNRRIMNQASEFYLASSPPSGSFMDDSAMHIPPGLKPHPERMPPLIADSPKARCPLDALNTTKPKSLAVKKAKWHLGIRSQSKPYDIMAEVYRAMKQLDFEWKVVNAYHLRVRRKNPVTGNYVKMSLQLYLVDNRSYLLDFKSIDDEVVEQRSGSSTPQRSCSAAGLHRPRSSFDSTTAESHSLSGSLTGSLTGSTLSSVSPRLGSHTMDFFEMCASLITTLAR
T1 sequence (Q9Y478 whole entry): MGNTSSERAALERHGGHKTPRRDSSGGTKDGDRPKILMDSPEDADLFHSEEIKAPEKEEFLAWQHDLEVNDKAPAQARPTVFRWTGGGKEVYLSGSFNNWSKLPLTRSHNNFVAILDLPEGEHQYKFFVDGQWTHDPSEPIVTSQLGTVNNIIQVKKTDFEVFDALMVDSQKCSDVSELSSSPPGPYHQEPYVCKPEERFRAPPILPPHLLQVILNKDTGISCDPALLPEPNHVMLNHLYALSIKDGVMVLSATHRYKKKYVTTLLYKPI
T1 sequence (P54619 whole entry R299G): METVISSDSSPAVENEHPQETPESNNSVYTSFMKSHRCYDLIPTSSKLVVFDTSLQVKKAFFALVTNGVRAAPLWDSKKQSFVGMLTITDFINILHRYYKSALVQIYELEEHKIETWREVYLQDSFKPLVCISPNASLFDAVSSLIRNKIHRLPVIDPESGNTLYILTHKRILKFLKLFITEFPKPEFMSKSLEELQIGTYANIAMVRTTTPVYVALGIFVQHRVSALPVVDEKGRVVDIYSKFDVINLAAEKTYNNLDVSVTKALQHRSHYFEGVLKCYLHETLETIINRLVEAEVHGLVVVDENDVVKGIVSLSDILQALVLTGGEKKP
In words: AMPK in vitro activity assay (HTRF-KinEASE), γ1 R298G mutant. As to conditions: mutation in the γ1 AMP binding pocket. Type of assay: biochemical. The protocol: (§1) Lusianthridin (CAS 87530-30-1) was isolated from Thunia alba fruit. It was sourced from Analyticon (NP-012362). The plant was purchased through Analyticon's biomaterial supplier in 2003. The country of origin is Nepal. The AMPK heterotrimers were expressed in bacteria and purified through the His-α subunit by nickel purification. AMPK complexes were purified through gel filtration and phosphorylated by incubation with CaMKKβ, and further purified with a final gel filtration purification step. Phosphorylated purified AMPK was incubated with varying concentrations of ligand for 30 mins using substrate and reagents from the HTRF-KinEASE Cisbio assay kit (STK S1 Kit). Phosphorylation of the substrate was measured by incubating with donor and acceptor antibodies for 2 h at room temperature as per the manufacturer's protocol (and Coulerie et al., (2016) PMID: 27792327) and phosphorylated peptide detected by performing HTRF. The 665 nm/620 nm ratio was determined and the results are plotted as fold activation compared to the respective AMPK complex without any compound.

Assay [5] concerns the target T2, AMPK α2β2γ1 (221) (Homo sapiens, UniProt O43741+P54619+P54646).
T2 construct: His; made in house; host or cells: bacteria
Kind of assay: AMPK in vitro activity assay (HTRF-KinEASE), β2-containing complex. As to conditions: fold activation vs complex without compound. Type of assay: biochemical. The protocol: as §1

Assay [6] concerns C2C12 AMPKα1α2−/− cells. Kind of assay: Glucose uptake (3H-2-deoxyglucose) in differentiated C2C12 AMPKα1α2−/− cells. Type of assay: cell-based, murine. As to conditions: 30 or 100 μM Lusianthridin, 300 nM Insulin, 1 h at 37° C. The text has this: C2C12 AMPK α1α2 double knockout cell lines were generated by transient transfection of wild type cells with plasmids containing Cas9 enzyme linked to green fluorescent protein expression and Cas9 guide RNA sequences targeting the murine AMPK α1 subunit (sc-430618, SantaCruz) and the murine AMPK α2 subunit (sc-430803, SantaCruz). Cells positive for green fluorescent protein expression were single cell sorted by flow cytometry into 96-well plates containing growth medium and analysed for loss of AMPK signaling following expansion of the clones.
Differentiated C2C12 AMPKα1α2+/+ and AMPKα1α2−/− cells were treated with either vehicle (0.2% DMSO), 30 μM or 100 μM Lusianthridin for 1 h at 37° C. […] Finally, differentiated C2C12 AMPKα1α2+/+ and AMPKα1α2−/− cells were treated with either vehicle (0.2% DMSO) or 100 μM Lusianthridin in the presence or absence of 15 nM Wortmanin for 1 h at 37° C. For the Wortmanin experiments, differentiated C2C12 cells were pre-incubated with DMSO or Wortmanin for 1 h prior to treatment.
Glucose uptake was determined by monitoring the uptake of 3H-2-deoxyglucose into cells. C2C12 AMPKα1α2+/+ and AMPKα1α2−/− cells were maintained in DMEM GlutaMAX supplemented with 20% (vol/vol) FBS and 100 U/ml penicillin G, and 100 μg/ml streptomycin. […] Cells were lysed and the quantity of ^3H determined in these samples using a scintillation counter.

T2 sequence (P54646 whole entry): as the sequence (P54646 whole entry) above
T2 sequence (O43741 whole entry): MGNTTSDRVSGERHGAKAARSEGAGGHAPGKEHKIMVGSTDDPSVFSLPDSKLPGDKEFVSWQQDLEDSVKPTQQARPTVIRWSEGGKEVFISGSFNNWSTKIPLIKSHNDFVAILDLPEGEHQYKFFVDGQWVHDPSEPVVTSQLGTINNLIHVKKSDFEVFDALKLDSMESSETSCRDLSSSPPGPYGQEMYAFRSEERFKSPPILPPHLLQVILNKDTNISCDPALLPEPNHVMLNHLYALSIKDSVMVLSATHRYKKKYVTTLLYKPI
T2 sequence (P54619 whole entry): as the sequence (P54619 whole entry R299G) above, with G299R counted along it

As to `COc1cc(O)c2c(c1)CCc1cc(O)ccc1-2` [Lusianthridin, 7-Methoxy-9,10-dihydrophenanthrene-2,5-diol], the “rate of lipogenesis (DPM per μg of protein)” value in assay [1] is listed as “inhibit lipogenesis in a dose-dependent manner”. The “pACC (HTRF and western blot, pACC/total ACC)” value in assay [2] (FIGS. 19 and 20) is “dose-dependently increase pACC”. In addition, in assay [2] (varying concentrations, 30 mins at 37 C), the “pACC (HTRF assay)” value is “capable of activating”. In assay [3], the “phosphorylation of the AMPK substrate ACC (pACC HTRF)” value is “increases”. The “activation of AMPK α2β1γ1 γ1 R298G mutant complexes” value in assay [4] is “still activates”. The “activation of β2-containing AMPK complexes (α2β2γ1)” value in assay [5] was “does not activate”. For the same compound, in assay [6], the “glucose uptake (fold change relative to control)” value was “abolished”.
